Earlier results in US7335651B2, “Compositions incorporating(-)-hydroxycitric acid and related methods for promoting fat oxidation” (Interhealth Nutraceuticals Incorporated, priority 2001, dated 2008).
Like-named read-outs stand apart in the source and are kept apart here.

Experiments:
[1] = acute toxicity tests
ATP-citrate lyase = biological target: T1, ATP-citrate lyase (Homo sapiens, UniProt P53396)
T1 sequence (P53396 1-1101): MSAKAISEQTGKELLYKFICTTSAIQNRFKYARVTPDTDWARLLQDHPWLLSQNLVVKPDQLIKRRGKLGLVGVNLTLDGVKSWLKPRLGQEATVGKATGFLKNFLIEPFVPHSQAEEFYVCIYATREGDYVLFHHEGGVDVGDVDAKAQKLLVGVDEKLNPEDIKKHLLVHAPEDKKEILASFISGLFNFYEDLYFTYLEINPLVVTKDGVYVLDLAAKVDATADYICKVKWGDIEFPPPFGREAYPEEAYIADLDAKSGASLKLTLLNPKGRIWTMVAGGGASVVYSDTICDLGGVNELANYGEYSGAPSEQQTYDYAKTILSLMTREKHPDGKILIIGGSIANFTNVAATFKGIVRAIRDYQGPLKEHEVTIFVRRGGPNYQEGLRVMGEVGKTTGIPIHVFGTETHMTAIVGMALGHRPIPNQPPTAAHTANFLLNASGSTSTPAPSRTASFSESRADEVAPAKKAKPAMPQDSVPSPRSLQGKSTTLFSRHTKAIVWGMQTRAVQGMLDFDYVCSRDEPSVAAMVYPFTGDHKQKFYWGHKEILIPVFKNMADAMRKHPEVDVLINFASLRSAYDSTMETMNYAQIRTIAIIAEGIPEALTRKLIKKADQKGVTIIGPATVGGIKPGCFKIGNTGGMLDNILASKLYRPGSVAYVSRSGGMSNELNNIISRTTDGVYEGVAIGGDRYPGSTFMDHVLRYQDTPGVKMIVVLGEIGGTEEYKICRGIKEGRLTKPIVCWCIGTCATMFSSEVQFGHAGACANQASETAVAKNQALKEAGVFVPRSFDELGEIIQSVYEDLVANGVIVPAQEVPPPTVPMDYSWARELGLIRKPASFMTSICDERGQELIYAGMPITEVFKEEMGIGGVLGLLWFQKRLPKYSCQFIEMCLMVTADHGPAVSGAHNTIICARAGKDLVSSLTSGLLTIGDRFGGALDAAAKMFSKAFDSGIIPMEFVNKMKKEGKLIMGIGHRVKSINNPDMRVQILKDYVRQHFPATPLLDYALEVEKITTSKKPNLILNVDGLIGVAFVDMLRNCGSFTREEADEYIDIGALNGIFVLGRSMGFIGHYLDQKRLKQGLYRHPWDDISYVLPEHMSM

liver lipogenesis = conditions: rats; acute oral dose 2.63 mmoles/kg (roughly 594 mg/kg) before a standardized synthetic meal; up to 8 hours after the meal
growing rats = conditions: thirty days
young obese women = conditions: eight weeks

| Compound | Acute toxicity compared with citric acid [1] | Mode of inhibition of ATP-citrate lyase (ATP-citrate lyase) | Decrease in liver lipogenesis (liver lipogenesis) | Decrease in body weight gain (growing rats; 0.33 mmoles/kg twice daily) | Decrease in body weight gain (growing rats; 2.63 mmoles/kg once daily) | Decrease in body weight gain (growing rats; single daily administration) | Body weight change with exercise (young obese women; in combination with exercise, O-NBC at 400 micrograms chromium per day) | Body weight change without exercise (young obese women; no exercise) | DNA damage and mutagenicity (DNA) |
| --- | --- | --- | --- | --- | --- | --- | --- | --- | --- |
| O=C(O)CC(O)(C(=O)O)C(O)C(=O)O (single isomer, unassigned; (-)) [HCA, (−)-hydroxycitric acid] | even safer than citric acid | competitive inhibitor | roughly 70% | significant | significant | no significant reductions |  |  |  |
| chromium picolinate |  |  |  |  |  |  | no change in weight | significant weight gain | damage DNA and be mutagenic |
